Consider one molecule from patent publication US20100048594A1, “USE OF CYTOHESIN INHIBITORS FOR CHEMICALLY INDUCING LONGEVITY” (RHEINISCHE FRIEDRICH-WILHELMS UNIVERSITAT, priority 2006, published 2010).

Assay [1] has as its system IGFBP1 (insulin-like growth factor binding protein). The assay can be described thus: Transcription of IGFBP1 in insulin-treated HepG2 liver cells (quantitative PCR). The format is cell-based, human. As for the experimental part:
Human hepG2 cells (ECACC) were cultivated in EMEM medium (Cambrex) with the addition of 10% fetal calf serum. 10^5 cells were seeded in 2 ml medium in 6 well plates and were cultivated at 37° C. in a moist atmosphere with 5% CO2 for 1 to 3 days, before being used for experiments.
For human HepG2 cells (ECACC), serum was removed from the medium for 24 hours, the cells were incubated for an additional 12 hours with concentrations of 1.5625 μM, 3.125 μM, 6.25 μM, 12.5 μM, 25 μM or 50 μM of the compound according to formula (9) and with 10 nM insulin. Control cells received DMSO in a concentration corresponding to that of the treated cells.
Total RNA was isolated using the Absolutely RNA Kit (Stratagene), and the cDNA was produced by means of the reverse transcription of 2 μg RNA using the High Capacity cDNA Archive Kit (Applied Biosystems), according to the manufacturer's instructions. Quantitative PCR was performed in 10 μl batches in an iQ5 Cycler (BioRad) by means of the TaqMan Gene Expression Assay (Applied Biosystems) using gene-specific primer (Applied Biosystems), according to the manufacturer's instructions. The data were normalized to the β2-microglobulin expression.

Another assay has as its system 4E-BP. The assay can be described thus: Expression of insulin-repressed gene 4E-BP in fed Drosophila larvae (real-time PCR). The conditions noted are these: 10 mg compound per 1 g brewer's yeast, 3 days. The format is in vivo. As for the experimental part: Three groups of 100 Drosophila larvae received 10 mg of the compound according to formula (9) mixed with 1 g autoclaved and pulverized brewer's yeast (Brewferm), while three control groups of 100 animals each received the uncut brewer's yeast. This food was administered on water-impregnated filters (Macherey-Nagel) for 3 days at 25° C.
In each case, more than 10 animals of the group were washed thoroughly with water, placed in lysate buffer (NucleoSpin RNA II kit, Macherey & Nagel), and homogenized for 1 minute at maximum speed (Ultra-Turrax T25basic). Total RNA was isolated using the NucleoSpin RNA II Kit (Macherey & Nagel, including DNase I-treatment on the column).
cDNA was produced from each 500 ng total RNA using the QuantiTect Reverse Transcription Kit (Qiagen), according to the manufacturer's instructions, including DNase I treatment. PCR was performed in batches with a total volume of 25 μl (iQ5 Real Time PCR Detection System, BioRad). The batches contained 1 μl of the cDNA batch, in each case 200 nM and 3′- and 5′-primer (Metabion) 12.5 μl 2×iQ5 SYBR Green Supermix (BioRad).
The PCR program that was used comprised 40 cycles with the following steps: 15 seconds denaturing at 95° C., 30 seconds annealing at 59° C. and 30 seconds extension at 72° C. Evaluation was carried out using the iQ5 Optical System software (Version 1.1.1442.OCR, BioRad). […]
(Quantitative PCR measures a nucleic acid by following its amplification.)

The next assay has as its system Akt. Briefly: Insulin-stimulated phosphorylation of Akt in Drosophila S2 Schneider cells (Western blot). The format is cell-based. To be noted: 10 μM compound 2 hours, 10 μg/ml human insulin 15 minutes. As for the experimental part: 10^6 Drosophila S2 cells (Schneider, 1972. J. Embryol. Exp. Morphol. 27, 353) were seeded in cell culture medium (PAN company) with 10% fetal calf serum and 1% streptomycin, penicillin (Gibco) in 35 mm cell culture plates (Nunc company) and cultivated for 2 days at 25° C. to 70-80% confluence. After 2 days, 0.5% (v/v) of the medium DMSO was added, and, based upon the experiment, 10 μM of the compound according to formula (9) was added for 2 hours before insulin stimulation. For an insulin stimulation, human insulin (Sigma) was used for 15 minutes at a rate of 10 μg/ml. Once stimulation was complete, the cells were washed with cold PBS, lysed in cold (4° C.) lysate buffer (50 mM Tris-HCl, pH 8.0, 150 mM NaCl, 1.0% Triton X-100, 0.1% SDS, 0.5% sodium deoxycholate, 50 mM NaF, 100 μM sodium orthovanadate, 1 mM phenylmethylsulfonyl fluoride and EDTA-free protease inhibitor (Roche), according to manufacturer's instructions, and used in the Western Blot analysis.
In each case, 10 μg protein were isolated on a 12% SDS polyacrylamide gel and transferred to 0.22 μm porous nitrocellulose membranes (Amersham). […]
Visualization was performed by means of the ECL Kit (Enhanced Chemiluminescence, Amersham) using the VersaDoc 5000 Imaging System (BioRad) and the QuantityOne software (BioRad).
For orientation: In western blotting, separated proteins are transferred to a membrane and probed.

Each structure is given as a SMILES string.

With `COc1nc(-c2ccc3c(c2)OCO3)n(-c2ccc(NC(=O)CSc3ccccc3)cc2)n1` [Compound (9)], the “IGFBP1 expression relative to untreated cells” value in assay [1] (12.5 μM compound, 10 nM insulin) is “nearly the value of the untreated cells”. Besides, the “block of the insulin-dependent inhibition of the transcription of IGFBP1” value in assay [1] (12 hours with compound and 10 nM insulin) was “nearly completely block”. Further, the “expression of insulin-repressed gene 4E-BP” value with 4E-BP is given as “more than four times”. In the assay with Akt, the “insulin-stimulated phosphorylation of the protein Akt” value is recorded as “decreased by half”.
